In one data set the test system is M smeg 5G987. The experiment in a line: MIC assay, broth microdilution with resazurin. The class given is cell-based, Mycobacterium smegmatis. The following applies: for MIC: Mycolicibacterium smegmatis. The method, then:
(§1) The protocol used is based upon that detailed by the CLSI (Clinical and Laboratory Standards Institute (CLSI) 2006. Methods for Dilution Antimicrobial Susceptibility Tests for Bacteria that Grow Aerobically; Approved Standard. 7th edn. Document M7-A6. Clinical and Laboratory Standards Institute, Wayne, PA.).
(§2) The compounds are dissolved in DSMO in a concentration of 1 mg/ml and further diluted in water to achieve the final concentration, which is used as the highest concentration for determination of MIC. This highest concentration is filled in the first row of the microtiter plate and further diluted in the culture medium for the mycobacteria (Mueller-Hinton Broth and Middlebrook 7H9 broth). All solutions are freshly prepared under sterile conditions.
(§3) Ciprofloxacin, Isoniazid and Rifampicin can be used as reference compounds for control of the assay as well as a solvent control.
(§4) Minimal inhibitory concentrations (MIC) are determined according to the CLSI guidelines using the broth microdilution method. 50 µl of the compound solution are serially diluted directly in the microtiter plate by factor two with MHB or 7H9 media. Then the wells are inocalated with 50 µl of test organisms in MHB/7H9 to give a final concentration of 5x10^5 CFU/ml. After that the microtiter plates are incubated at 37°C for 48 h. Then 30 µl of resazurin solution is added to each well and plates are allowed to incubate at 37°C for additional 24 hrs. A change from blue to pink colour indicates reduction of resazurin and therefore bacterial growth. The MIC is defined as the lowest drug concentration that prevents this colour change.
(§5) Resazurin salt powder (Sigma) is prepared at 0.01 % (wt/vol) in distilled water, sterilized by filtration through a 0.22 µm membrane and stored at 4°C for a week.

The next data set deals with M fort B. The experiment in a line: MIC assay, broth microdilution with resazurin. The class given is cell-based. The following applies: for MIC: read-out: MIC M fort B. As for the experimental part: as §1, §2, §3, §4, §5
The test system of another data set is mycobacteria. Particulars: comparison values, strain not named; cited from earlier work.
Another data set concerns M aurum SB66. The data set is described as follows: MIC assay, broth microdilution with resazurin. The class given is cell-based. The following applies: for activity against M. aureum strain SB66: strain resistant against agents that target decaprenylphosporyl-β-D-ribose 2'-epimerase. As for the experimental part: as §1, §2, §3, §4, §5
For another data set, the system named is M vaccae 10670. The data set is described as follows: MIC assay, broth microdilution with resazurin. It counts as cell-based. The method, then:
as §1, §2, §3, §4, §5

The test system of data set [1] is Mycobacterium smegmatis, ATCC 700084. The data set is described as follows: MIC assay, broth microdilution with resazurin. It counts as cell-based. Particulars: Mycolicibacterium smegmatis, ATCC700084; head carries superscript IMB; read-out: MIC M smeg 700084. The method, then: as §1, §2, §3, §4, §5
The subject of the next data set is M tb MDR (BACTEC). The experiment in a line: microbe, parasite or virus in culture. It counts as cell-based, M. tuberculosis. Particulars: for MIC: Mycobacterium tuberculosis.
A further data set relates to HUVEC. The class given is cell-based. As for the experimental part: (§6) Test cells (see Table below for details) are seeded as 1x10^4 cells per well in a clear 96 well plate in a final volume of 100 µl in media. Cells are incubated for 24 hours at 37°C, 5% CO2 to allow cells to attach to the plates.
(§7) The compounds of the present invention are added in triplicate in a range of concentrations. For compound A e.g., the concentration started from 100µM,...and then 2-fold diluted to 0.78µM. Colistin and Tamoxifen were applied as controls.
(§8) The cells are incubated for 24 hours at 37°C, 5% CO2. MTT (3-(4,5-Dimethylthiazol-2-yl)-2,5-diphenyltetrazolium bromide) (Sigma) (dissolved in PBS) is added to each well to a final concentration of 0.4 mg/mL. The plate is then incubated for 1 hours at 37°C, 5% CO2. Media is removed, and crystals are resuspended in 60 µl of DMSO. Shaking the plate at room temperature for 10 minutes dissolves the formazan crystals, and the absorbance is then read at 570 nm.
(§9) Results are presented as the average percentage of control ± SD for each set of duplicate wells using the following equation: Percent Viability = (ABSTEST - ABS5%DMSO/ / ABSUNTREATED -ABS5%DMSO)*100. A 1% DMSO 'vehicle' control is also included to monitor the effect of DMSO on the cells (all pure compounds are diluted in 10 % DMSO, so final assay concentration is 1%).

The next data set relates to K-562. It counts as cell-based. The method, then: as §6, §7, §8, §9
The subject of a further data set is HEK293. The experiment in a line: Cytotoxicity assay (MTT). Particulars: 24 hours, read-out: CytoTox HEK293 (CC50). The class given is cell-based. The method, then: as §6, §7, §8, §9
A further data set deals with HeLa. The data set is described as follows: Cytotoxicity assay (MTT). The class given is cell-based. Particulars: 24 hours, read-out: CytoTox HeLa (CC50). The method, then: as §6, §7, §8, §9
A further data set deals with HepG2. The data set is described as follows: Cytotoxicity assay (MTT). It counts as cell-based. The following applies: 24 hours, read-out: CytoTox HepG2 (CC50). The method, then: as §6, §7, §8, §9
A further data set in a line: Stability in plasma (H). Particulars: first value of the cell.
The nature of a further data set: Stability in plasma (M). The following applies: second value of the cell.
A further data set is described as follows: Cytotoxicity assay (MTT). The class given is cell-based. Particulars: human. As for the experimental part: as §6, §7, §8, §9
Another data set has as its system M. tuberculosis H37Rv. The data set is described as follows: BTZ efficacy in the acute animal model (mouse infection). It counts as in vivo. The following applies: BALB/c mice, 5 x 10^6 CFU, gavage 37.5 or 300 mg per kg, once daily, 5 times/week, four weeks. The method, then:
BTZ efficacy in vivo can be determined in a standard mouse infection model according to e.g. the following protocol. BALB/c mice are infected with M. tuberculosis H37Rv at a bacillary load of 5 x 10^6 CFU by injection into the eye venous sinus, 10 BALB/c mice per group. The first day of the treatment is day 8 after the infection. Mice are dosed by gavage with 37.5, or 300 mg of BTZ, per kg body weight, in carboxymethyl cellulose formulation (0.25%), once daily, 5 times/week, for four weeks. Negative control mice died 25-28 days after infection.

The next data set in a line: physchem. Particulars: 20 °C, pH 7.4, aqueous buffer, kinetic from dmso stock.
Where [2] appears, read: 5G987, read-out: MIC M smeg 5G987.

Here are results for 5 molecules from patent publication EP2468746A1, “Benzothiazinone compounds and their use as anti-tuberculosis agents” (priority 2010, dated 2012).

In brackets after ≈: the same amount, converted by molar mass. Several values for one entry are separate records, joined by “and”; a condition that tells them apart may be missing. Equal entries are not always repeated. Where two headings read alike, the source gives them in different places.

For `O=c1nc(N2CCN(Cc3ccccc3)CC2)sc2c([N+](=O)[O-])cc(C(F)(F)F)cc12` [Cpd 7 of WO 2009/010163, reference compound], the MIC in the data set with M smeg 5G987 (setting [2]) came out at 0.05 µg/mL; in the data set on M fort B, 0.05 µg/mL (≈ 0.111 µM).

`NNC(=O)c1ccncc1` [isoniazid]: the “MIC of the existing TB drugs” value in the data set with mycobacteria was 0.02 to 0.2 µg/mL.

As to `CC1COC2(CCN(c3nc(=O)c4cc(C(F)(F)F)cc([N+](=O)[O-])c4s3)CC2)O1` (stereo not shown) [Cpd 1 of WO 2007/134625, reference compound], the “MIC M smeg 5G987” value against M smeg 5G987 is given as 0.00312 µg/mL (≈ 0.00723 µM). The “MIC M aurum SB66” value against M aurum SB66 is on record as above 100 µg/mL. In addition, in the data set on M aurum SB66, the “activity against M. aureum strain SB66” value is “neither compound A nor the Reference compound I are active”. Moreover, the “MIC M fort B” value against M fort B is 0.00156 µg/mL (≈ 0.00362 µM). The MIC stood at 0.0004 µg/mL (≈ 0.000927 µM) in the data set with M vaccae 10670 and 0.008 µg/mL (≈ 0.0185 µM) in data set [1]. The “MIC M tb MDR (BACTEC)” value in the data set on M tb MDR (BACTEC) is listed as at most 0.015 µg/mL. In addition, the “CytoTox HUVEC (GC50)” value with HUVEC is 8 µM. The “CytoTox K-562 (GC50)” value in the data set on K-562 was 11 µM. The CC50 with HEK293 is above 100 µM; in the data set with HeLa it was above 50 µM; in the data set with HepG2, above 100 µM. The “Stability Plasma (H/M)” value in “Stability in plasma (H)” was determined as 107%; in “Stability in plasma (M)”, 97%.

As for `CC[C@@H](CO)NCCN[C@@H](CC)CO` [ethambutol], the “MIC of the existing TB drugs” value with mycobacteria was 1 to 5 µg/mL.

Regarding `CN(C(=O)CN1CCN(c2nc(=O)c3cc(C(F)(F)F)cc([N+](=O)[O-])c3s2)CC1)c1ccccc1` [Compound A], the MIC in the data set on M smeg 5G987 (5G987, molar value in brackets, strain not named, read-out: MIC against Mycobacterium smegmatis) is 0.025 µM; in the data set on M smeg 5G987 (setting [2]), 0.0125 µg/mL; with M smeg 5G987 (5G987, read-out: MIC against Mycobacterium smegmatis) it was 0.012 µg/mL; in the data set with M aurum SB66 it was above 100 µg/mL; with M fort B, 0.0125 µg/mL (≈ 0.0246 µM); with M vaccae 10670, 0.00312 µg/mL (≈ 0.00615 µM). Moreover, the MIC was 0.015 µg/mL (≈ 0.0296 µM) in [1]; 0.03 µg/mL (≈ 0.0591 µM) with M tb MDR (BACTEC) (read-out: MIC M tb MDR (BACTEC)); 0.03 µg/mL and 0.059 µM in the data set with M tb MDR (BACTEC) (read-out: MIC against MDR M. tuberculosis). Besides, the “activity against M. aureum strain SB66” value in the data set with M aurum SB66 is listed as “neither compound A nor the Reference compound I are active”. In the data set with HUVEC (human, 24 h), the “CytoTox HUVEC (GC50)” value stood at 18 µM. In addition, in the data set with K-562 (human, 24 h), the “CytoTox K-562 (GC50)” value was found to be 30 µM. The CC50 at 24 h in “Cytotoxicity assay (MTT)” (HEK293 cells, read-out: CytoTox HEK293 (CC50)) is above 100 µM; in the data set “Cytotoxicity assay (MTT)” (HeLa cells, read-out: CytoTox HeLa (CC50)) it was 39 µM; in “Cytotoxicity assay (MTT)” (HepG2 cells, read-out: CytoTox HepG2 (CC50)), above 100 µM. Besides, the “efficacy, life of the treated mice” value in the data set on M. tuberculosis H37Rv was “very effective in this model and significantly prolonged the life of the treated mice”. The solubility at 20 h in the data set “physchem” amounted to 12 µM (≈ 6.09 µg/mL). Also, the entries for the “Stability Plasma (H/M)” value in the data set “Stability in plasma (H)” and in “Stability in plasma (M)” were 95% and 115%, respectively.
